Laboratory results from patent publication EP0521799A1, “Ophthalmic compositions” (YISSUM RESEARCH DEVELOPMENT COMPANY OF THE HEBREW …, priority 1991, dated 1993).

Assays:
A. niger = assay: Preservative efficacy in emulsion (Table 2); assay type: cell-based
Method: (§1) To each 20ml of emulsion, an inoculum of a microorganismal suspension (at an initial concentration of about 1-3 x 10⁸ cells per ml) was added under sterile conditions to a final concentration of about 1-3 x 10⁶ cells per ml of emulsion. Immediately upon inoculation and at 24, 48 hours, 7, 14 and 28 days thereafter, samples of 1 ml were withdrawn and eluted in a pH 7.0 sodium chloride buffer (B.P. 88 neutralizing buffer, DIFCO Laboratories, Detroit, MI, USA) to neutralize the preservatives. After about 20-30 minutes of exposure of sample to the neutralizing buffer, samples were filtered through a 0.45µm cellulose acetate filter (TE, Schueller & Schleicher). The filter and the holder were washed with 3 portions of 100 ml of sodium chloride peptone solution and then the filter was transferred to a petri dish with PCPL media which consisted of the following ingredients (per 400 ml): 20g tryptone, 1.0g yeast extract, 0.4g. dextrose, 6.0 bactoagar, 0.4g lethicin and 8.0ml Tween 80.
(§2) At 24 hours or at 2 to 5 days after the withdrawal of the sample, the number of the microorganism was counted on the petri dishes. (In order to achieve a proper count of the microorganism dilutions of the initially withdrawn sample to obtain a dilution factor of 1:10-1:50,000, were made).
(§3) Two blank emulsions without a preservative served as control for the two different neutralizing buffers.

C. albicans = assay: Preservative efficacy in emulsion (Table 2); assay type: cell-based
Method: as §1, §2, §3

E. coli = assay: Preservative efficacy in emulsion (Table 2); assay type: cell-based
Method: as §1, §2, §3

S.aureus = assay: Preservative efficacy in emulsion (Table 2); assay type: cell-based; conditions: for Number of Organisms in 1ml Emulsion: S.aureus
Method: as §1, §2, §3

P. aeruginosa = assay: Preservative efficacy in emulsion (Table 2); assay type: cell-based
Method: as §1, §2, §3

microorganisms = assay: Preservative efficacy of single preservatives, overall judgement; assay type: cell-based
Method: as §1, §2, §3
The same experiment was also carried out with Chlorbutol alone instead of Thimerosal.

[1] = HU-211 concentration in emulsions on storage; assay type: physicochemical; conditions: in emulsion
Method: The HU-211 concentration was measured at different temperatures after various storage times and the results are shown in Fig. 11.

Albino rabbits = assay: Intraocular pressure (IOP) after a single topical dose of HU-211 emulsion; assay type: in vivo; conditions: for decrease of IOP in the contralateral eye: untreated left eye, about 4 hours after administration
Method: Albino rabbits of both sexes weighing 2.25 kg were used. All rabbits chosen had no signs of ocular pathology.
(§4) The intraocular pressure (IOP) was measured by a Digilab pneumotonometer model 30R. For IOP measurement, one drop of the local anaesthetic benoxinate HCl (Fischer Pharmaceuticals, Israel) diluted 1:3 in sterile solution was instilled into each eye. In order to ensure reproducibility of IOP readings, the animals were accustomed to the experimental procedure by repeated handling.
Basal IOP was measured for 2 days prior to drug application by measuring the IOP 5 times over an 11 hrs. period (starting at 8am and ending at 7pm). Each time IOP was measured twice and an average of two readings was obtained.
IOP was measured at the time of drug application and at 1.5, 4, 6 and 11 hrs. thereafter.
Two groups of animals were tested, each by a different experimenter. The first group which consisted of 20 rabbits is referred to herein as " Group I" and the second group which consisted of 10 rabbits is referred to herein as "Group II". The two groups received, however, exactly the same treatment.
The treatment consisted of the application of a single dose of 50µl of a 0.1% (w/v) of HU-211 preparation in accordance with the invention into the lower cul-de-sac of the right eye of each rabbit. The eye was then kept open for a few more seconds, while excessive liquid spilling over the eyelid was wiped off. The left eye was not treated.

[2] = system: ocularly normo-tensive rabbits; assay: IOP after topical Δ⁸-THC composition, normo-tensive rabbits; assay type: in vivo, albino rabbits; conditions: composition of the invention comprising 0.4% Δ⁸-THC
Method: as §4
(§5) A composition in accordance with the invention comprising 0.4% Δ⁸-THC was administered to the right eyes of albino rabbits. The administration of the composition and IOP measurements were performed as described above under (A).
(§6) Both ocularly hypertensive and normo-tensive albino rabbits were used in the study.

[3] = system: ocularly hypertensive rabbits; assay: IOP after topical Δ⁸-THC composition, hypertensive rabbits; assay type: in vivo, albino rabbits; conditions: composition of the invention comprising 0.4% Δ⁸-THC
Method: as §4, §5, §6

[4] = Oh (immediately upon inoculation)
[5] = single preservative in emulsion
[6] = treated eye, single dose 50µl of 0.1% (w/v) HU-211

N=C(NCCCCCCNC(=N)NC(=N)Nc1ccc(Cl)cc1)NC(=N)Nc1ccc(Cl)cc1 [CHL, Chlorhexidine gluconate]
Number of Organisms in 1ml Emulsion (A. niger; 24h): 38
Number of Organisms in 1ml Emulsion (A. niger; 48h): 54
Number of Organisms in 1ml Emulsion (C. albicans; 24h): >600
Number of Organisms in 1ml Emulsion (C. albicans; 48h): 433
Number of Organisms in 1ml Emulsion (C. albicans; [4]): 0.9 x 10^6
Number of Organisms in 1ml Emulsion (E. coli; 48h): 5 x 10^6
Number of Organisms in 1ml Emulsion (E. coli; [4]): 5.5 x 10^6
Number of Organisms in 1ml Emulsion (S.aureus; [4]): 3.5 x 10^6
Number of Organisms in 1ml Emulsion (P. aeruginosa; 24h): 10^7
Number of Organisms in 1ml Emulsion (P. aeruginosa; 48h): 10^7
Number of Organisms in 1ml Emulsion (P. aeruginosa; [4]): 4.2 x 10^6

CC(C)(O)C(Cl)(Cl)Cl [Chlorbutol]
compliance with B.P. requirements (microorganisms; [5]): did not meet the B.P. requirements
preservative protection (microorganisms; [5]): No total preservative protection was achieved

CCCCCCC(C)(C)c1cc(O)c2c(c1)OC(C)(C)[C@H]1CC=C(CO)C[C@H]21 [HU-211]
HU-211 concentration ([1]; 8 months at 4°C, 25°C, 30°C and 37°C): essentially no change
HU-211 concentration ([1]; storage at 50°C): marked decrease in concentration
decrease of IOP in the contralateral eye (Albino rabbits; Group I): about 11.4%
decrease of IOP in the contralateral eye (Albino rabbits; Group II): ~12.1%
time until which the decrease in IOP persisted (Albino rabbits; treated eye, percentage of IOP change from basal level (Fig. 14)): about 11 hours
time after which basal IOP levels were resumed (Albino rabbits; [6]): about 11 hrs
time for which the decrease in IOP lasted (Albino rabbits; [6]): about 6 hrs
IOP (Albino rabbits; treated right eye, single dose of 50µl of 0.1% (w/v) HU-211 emulsion): dramatic decrease in IOP

C[CH2][Hg][S]c1ccccc1C(=O)O [THI, Thimerosal]
preservative protection (C. albicans; at 24h): not able to protect totally
maintenance of total killing (S.aureus; S. aureus, after 48 hours): contamination was noted
maintenance of total killing (P. aeruginosa; after 48 hours): contamination was noted
preservative effect compared with the other tested preservatives (microorganisms; 0.01% Thimerosal vs 0.02% benzalkonium chloride and 0.05% chlorhexadiene gluconate): much better preservative effect

Benzalkonium chloride [BZK]
Number of Organisms in 1ml Emulsion (A. niger; 24h): 29
Number of Organisms in 1ml Emulsion (A. niger; 48h): 43
Number of Organisms in 1ml Emulsion (A. niger; [4]): 1.5 x 10^4
Number of Organisms in 1ml Emulsion (C. albicans; 24h): >600
Number of Organisms in 1ml Emulsion (C. albicans; 48h): 433
Number of Organisms in 1ml Emulsion (C. albicans; [4]): 1.0 x 10^6
Number of Organisms in 1ml Emulsion (E. coli; 24h): 10^7
Number of Organisms in 1ml Emulsion (E. coli; 48h): 5 x 10^6
Number of Organisms in 1ml Emulsion (E. coli; [4]): 2.6 x 10^6
Number of Organisms in 1ml Emulsion (S.aureus; 24h): 10^7
Number of Organisms in 1ml Emulsion (S.aureus; 48h): 10^7
Number of Organisms in 1ml Emulsion (S.aureus; [4]): 7.3 x 10^6
Number of Organisms in 1ml Emulsion (P. aeruginosa; 24h): 10^7
Number of Organisms in 1ml Emulsion (P. aeruginosa; 48h): 10^7
Number of Organisms in 1ml Emulsion (P. aeruginosa; [4]): 4.2 x 10^6

Δ⁸-THC
duration of the reduction of IOP [2]: long-lasting
IOP ([2]; right eye): dramatically reduces the IOP
duration of the reduction of IOP [3]: long-lasting
IOP ([3]; right eye): dramatically reduces the IOP
